The NIST ThermoML archive (doi:10.1021/je900387e)
Numbers after ± are expanded uncertainties.

Assay: xn = mol fraction of the nth substance listed
Details: Liquid, Pycnometric method

Cn1ccnc1 [1-methylimidazole] + O=C=O
Details	mass density [kg/m3]
327.6 K, 13060 kPa, x1 = 0.0247	704 ± 4
327.6 K, 13110 kPa, x1 = 0.0102	649 ± 4
327.6 K, 13250 kPa, x1 = 0.0247	711 ± 4
327.6 K, 13400 kPa, x1 = 0.0102	663 ± 4
327.6 K, 13460 kPa, x1 = 0.0247	718 ± 4
327.6 K, 13670 kPa, x1 = 0.0247	724 ± 4
327.6 K, 13730 kPa, x1 = 0.0102	677 ± 4
327.6 K, 13900 kPa, x1 = 0.0247	731 ± 4
327.6 K, 14110 kPa, x1 = 0.0102	692 ± 4
327.6 K, 14140 kPa, x1 = 0.0247	738 ± 4
327.6 K, 14190 kPa, x1 = 0.0487	791 ± 4
327.6 K, 14340 kPa, x1 = 0.0487	795 ± 4
327.6 K, 14410 kPa, x1 = 0.0247	745 ± 4
327.6 K, 14560 kPa, x1 = 0.0102	707 ± 4
327.6 K, 14570 kPa, x1 = 0.0487	799 ± 4
327.6 K, 14710 kPa, x1 = 0.0247	753 ± 4
327.6 K, 14830 kPa, x1 = 0.0487	804 ± 4
327.6 K, 15010 kPa, x1 = 0.0247	760 ± 4
327.6 K, 15080 kPa, x1 = 0.0487	809 ± 4
327.6 K, 15100 kPa, x1 = 0.0102	723 ± 4
327.6 K, 15270 kPa, x1 = 0.0247	766 ± 4
327.6 K, 15370 kPa, x1 = 0.0487	814 ± 4
327.6 K, 15550 kPa, x1 = 0.0247	772 ± 4
327.6 K, 15660 kPa, x1 = 0.0487	819 ± 4
327.6 K, 15730 kPa, x1 = 0.0102	740 ± 4
327.6 K, 15940 kPa, x1 = 0.0487	825 ± 4
327.6 K, 15970 kPa, x1 = 0.0247	779 ± 4
327.6 K, 16080 kPa, x1 = 0.1024	899 ± 4
327.6 K, 16170 kPa, x1 = 0.1024	900 ± 4
327.6 K, 16280 kPa, x1 = 0.0487	829 ± 4
327.6 K, 16300 kPa, x1 = 0.1024	901 ± 4
327.6 K, 16400 kPa, x1 = 0.0247	787 ± 4
327.6 K, 16420 kPa, x1 = 0.1024	903 ± 4
327.6 K, 16460 kPa, x1 = 0.0102	758 ± 4
327.6 K, 16540 kPa, x1 = 0.1024	904 ± 4
327.6 K, 16640 kPa, x1 = 0.0247	791 ± 4
327.6 K, 16650 kPa, x1 = 0.0487	836 ± 4
327.6 K, 16650 kPa, x1 = 0.1024	905 ± 4
327.6 K, 16780 kPa, x1 = 0.1024	906 ± 4
327.6 K, 16930 kPa, x1 = 0.1024	908 ± 4
327.6 K, 16980 kPa, x1 = 0.0247	798 ± 4
327.6 K, 17060 kPa, x1 = 0.1024	909 ± 4
327.6 K, 17130 kPa, x1 = 0.0102	771 ± 4
327.6 K, 17210 kPa, x1 = 0.0247	802 ± 4
327.6 K, 17210 kPa, x1 = 0.1024	911 ± 4
327.6 K, 17330 kPa, x1 = 0.0487	846 ± 4
327.6 K, 17390 kPa, x1 = 0.1024	912 ± 4
327.6 K, 17490 kPa, x1 = 0.1024	913 ± 4
327.6 K, 17600 kPa, x1 = 0.0247	808 ± 4
327.6 K, 17620 kPa, x1 = 0.1024	914 ± 4
327.6 K, 17740 kPa, x1 = 0.0487	851 ± 4
327.6 K, 17750 kPa, x1 = 0.1024	916 ± 4
327.6 K, 17850 kPa, x1 = 0.0102	786 ± 4
327.6 K, 17870 kPa, x1 = 0.0247	813 ± 4
327.6 K, 17960 kPa, x1 = 0.1024	918 ± 4
327.6 K, 18080 kPa, x1 = 0.1024	919 ± 4
327.6 K, 18200 kPa, x1 = 0.0487	857 ± 4
327.6 K, 18230 kPa, x1 = 0.1024	920 ± 4
327.6 K, 18380 kPa, x1 = 0.0102	795 ± 4
327.6 K, 18380 kPa, x1 = 0.1024	922 ± 4
327.6 K, 18580 kPa, x1 = 0.1024	923 ± 4
327.6 K, 18690 kPa, x1 = 0.0487	863 ± 4
327.6 K, 18770 kPa, x1 = 0.1024	924 ± 4
327.6 K, 18840 kPa, x1 = 0.0102	802 ± 4
327.6 K, 18940 kPa, x1 = 0.1024	925 ± 4
332.4 K, 12410 kPa, x1 = 0.0102	539 ± 4
332.4 K, 12550 kPa, x1 = 0.0102	548 ± 4
332.4 K, 12670 kPa, x1 = 0.0102	558 ± 4
332.4 K, 12820 kPa, x1 = 0.0102	568 ± 4
332.4 K, 12980 kPa, x1 = 0.0102	578 ± 4
332.4 K, 13160 kPa, x1 = 0.0102	589 ± 4
